Data set [1] can be described thus: Metabolic stability in human liver microsomal preparation. It counts as in vitro ADME. The conditions noted are these: pH 7.4, human liver microsomes, NADPH, 37° C.; for half-life at 1 μM: 0-45 min, read-out: Metabolic Stability t1/2. The protocol: For evaluating the metabolic stability in human liver microsomal preparation, three buffers were prepared. Buffer A had 1.0 L of 0.1 M monobasic potassium phosphate buffer containing 1.0 mM EDTA. Buffer B had 1.0 L of 0.1 M dibasic potassium phosphate buffer containing 1.0 mM EDTA. Buffer C had 0.1 M potassium phosphate buffer, 1.0 mM EDTA, adjusted to a pH 7.4 via titrating 700 mL buffer B with buffer A. Reference compound (ketanserin) and test compounds spiking solutions (500 μM) were prepared by adding 10 μL of 10 mM DMSO stock compound solution into 190 μL acetonitrile. A volume of 1.5 μL 500 μM spiking solution and 18.75 μL 20 mg/mL human liver microsomes were added into 479.75 μL of Buffer C on ice. A stock solution of 6 mM NADPH was prepared by dissolving NADPH into Buffer C.
Wells on an assay plate were iced and filled with 30 μL 1.5-μM spiking solution containing 0.75 mg/mL microsomes solution and designated for different timepoints (0-, 5-, 15-, 30-, 45-min). For the 0-min timepoint, 135 μL acetonitrile containing internal standard were added followed by 15 μL of NADPH stock solution (6 mM). All other plates were preincubated at 37° C. for 5 minutes and 15 μL NADPH stock solution (6 mM) were added to the plates to start the reaction. At 5-min, 15-min, 30-min, and 45-min, 135 μL acetonitrile containing internal standard were added to the wells of corresponding plates, respectively, to stop the reaction. After quenching, the plates were shaken on the vibrator (IKA, MTS 2/4) for 10 min at 600 rpm and then centrifuged at 5594×g for 15 minutes (Thermo Multifuge×3R). Fifty μL supernatant from each well were transported into a 96-well sample plate containing 50 μL of ultra-pure water (Millipore, ZMQS50F01) for LC/MS analysis.

The target in data set [2] is recombinant full-length human hydroxyacid oxidase 1 (HAO1), the equivalent of hGOX (Homo sapiens (Human), UniProt Q9UJM8). The experiment in a line: In-vitro human glycolate oxidase (hGOX) assay (Amplex red/HRP fluorescence). It counts as biochemical.
Sequence of recombinant full-length human hydroxyacid oxidase 1 (HAO1), the equivalent of hGOX (Q9UJM8 whole entry): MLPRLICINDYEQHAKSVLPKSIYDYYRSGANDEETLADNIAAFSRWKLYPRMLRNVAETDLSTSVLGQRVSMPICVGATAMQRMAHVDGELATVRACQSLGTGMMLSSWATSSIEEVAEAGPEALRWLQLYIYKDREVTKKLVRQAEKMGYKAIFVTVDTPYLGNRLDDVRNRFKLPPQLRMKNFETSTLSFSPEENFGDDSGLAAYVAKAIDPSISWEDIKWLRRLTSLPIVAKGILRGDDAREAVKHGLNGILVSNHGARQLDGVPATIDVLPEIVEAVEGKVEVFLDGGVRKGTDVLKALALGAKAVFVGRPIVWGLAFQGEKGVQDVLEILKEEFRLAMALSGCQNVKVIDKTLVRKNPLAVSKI
Procedure: Biological Activity Assay: In-Vitro Human Glycolate Oxidase (hGOX) Assay
The in-vitro glycolate oxidase assay was performed using recombinant full-length human hydroxyacid oxidase 1 (HAO1), the equivalent of hGOX. […] Purified HAO1 was dissolved in assay buffer consisting of 10 mM NaCl, 110 mM KCl, 2 mM MgCl2, 50 mM HEPES (pH 7.4) and 0.01% Triton™ X-100.
Data set [3] can be described thus: Solubility in aqueous solution (deionized, distilled water). It counts as physicochemical. Conditions: kinetic from dmso stock, 1% DMSO, read-out: Aqueous Solubility H2O. The protocol: (§1) For testing compound solubility in phosphate buffered saline (PBS), compound stock solutions were prepared at 10 mM in 100% DMSO. For testing in aqueous solution, the phosphate buffer was replaced with deionized, distilled water. Eleven grams Na2HPO4 (FW: 141.96 g/mol) and 3.5 g NaH2PO4.2H2O (FW: 156.03 g/mol) was added to 1 L Milli-Q water and adjusted to a pH to 7.4 with phosphoric acid or sodium hydroxide. For incubation, media were preheated to 37° C. Eight μL aliquots of reference and test compound stock solutions (10 mM) were added into 792 μL of 100 mM phosphate buffer (pH 7.4). The final DMSO concentration was 1%. Sample tubes were shaken for 1 hour at 1000 rpm at room temperature.
(§2) The calibration curve was prepared with 300-μM spiking solution (SS) in MeOH:acetonitrile (4:1). Six μL of 10 mM compound was added in 194 μL MeOH/acetonitrile (4:1). Samples were centrifuged for 10 minutes at 12,000 rpm to precipitate undissolved particles. Supernatants were transferred to a new tube or plate and dilute 10-fold and 100-fold with 100 mM buffer. Samples were prepared for LC-MS/MS analysis by adding 5 μL each sample (undiluted, 10-fold diluted, and 100-fold diluted) and 5 μL of standard curve samples to 95 μL of acetonitrile (containing internal standard).

Data set [4] is described as follows: Stability in human plasma. It counts as in vitro ADME. Conditions: read-out: Plasma Stability T1/2. On the procedure: Stability in Human Plasma.
Stock compounds were prepared for testing the stability in human plasma. First, 0.05 M sodium phosphate and 0.07 M NaCl buffer, pH 7.4, were pre-heated. In deionized water, 14.505 g/L Na2HPO 12H2O, 1.483 g/L NaH2PO4.2H2O and 4.095 g/L NaCl were dissolved. The basic solution was titrated with the phosphoric acid to pH 7.40. Frozen plasma was quickly thawed at 37° C. The plasma was centrifuged at 3,000 rpm for 8 minutes to remove clots, then pipetted and pooled as the plasma stock for the experiment. Only plasma within the range of pH 7.4 to pH 8 was used. If higher than pH 8, the plasma was discarded. The initial pH of the plasma was not adjusted to pH 7.4 with acid or by bubbling with carbon dioxide. By using a 5% carbon dioxide incubator and PBS buffer, a pH of 7.4 will be reached after the 4-hour equilibrium dialysis time. Plasma was iced until use.
Spiking solution A with 0.5 mM testing compounds was prepared by adding 10 μL of 10 mM test compounds stock solution to 190 μL DMSO. Spiking solution B with 0.02 mM testing compound was prepared by adding 40 μL of spiking solution A to 960 μL of […] sodium phosphate buffer with 0.5% BSA. The plasma and spiking solution B were prewarmed at 37° C. for 5 minutes. Ten μL of pre-warmed spiking solution B was added into the wells designated for all the time points (5, 15, 30, 45, 60 minutes). For the 0-minute timepoint, 400 μL acetonitrile containing internal standard were added to the wells of 0-minute plate and then 90 μL plasma were added. For the other timepoints, 90 μL of pre-warmed plasma were added into the wells (0, 5, 15, 30, 45, 60 minutes) and the timing was started. At 5, 15, 30, 45, 60 minutes, 400 μL acetonitrile containing internal standard were added to the wells of corresponding plates, respectively, to stop the reaction. After quenching, the plates were shaken on a vibrator (IKA, MTS 2/4) for 10 minutes at 600 rpm and then centrifuged at 5594×g for 15 minutes (Thermo Multifuge×3R). Fifty μL of supernatant was transferred from each well into a 96-well sample plate containing 50 μL ultra-pure water (Millipore, ZMQS50F01) for LC/MS analysis.

A short description of data set [5]: Solubility in phosphate buffered saline (PBS), pH 7.4. It counts as physicochemical. The conditions noted are these: phosphate buffer (PBS), aqueous buffer, kinetic from dmso stock; phosphate buffered saline pH 7.4, 1% DMSO, 1 hour shaking at room temperature. The protocol:
as §1, §2

Data set [6] is described as follows: Protein binding (plasma equilibrium dialysis). Conditions: 5 hours at 37° C.; for fraction unbound at 5 h, 1 μM: read-out: Protein Binding Fraction Bound (converted). It counts as in vitro ADME. The protocol: For testing protein binding of stock compounds solubilized in DMSO, spiking solutions of test and reference compounds were prepared. Solution A (0.5 mM) was prepared by adding 10 μL of 10 mM stock solution into 190 μL of DMSO. Solution B (0.02 mM) was prepared by adding 8 μL of Solution A into 192 μL of 0.05 M sodium phosphate buffer. The final DMSO concentration in Solution B was 4%.
To prepare test and reference compounds in plasma, a 96-well plate with 380 μL aliquots of plasma in the wells designed for plasma and buffer, respectively. Twenty μL of Solution B (0.02 mM of test and reference compounds) were spiked into the pre-loaded plasma in the 96-well plate. The final test concentration is 1 μM containing 0.2% DMSO.
For dialysis sample loading a plasma again buffer system was prepared by applying aliquots of 100 μL of blank dialysis buffer to the receiver side of dialysis chambers and then applying aliquots of 100 μL of the plasma spiked with test and reference compounds to the donor side of the dialysis chamber. A 25-μL aliquot of the plasma spiked with test and reference compounds was added into a 96-well sample preparation plate as T″0″ plasma samples. Aliquots were mixed with the same volume of blank buffer (50:50, volume:volume). Samples were quenched with 200 μL of acetonitrile containing internal standard. The dialysis block was covered and a shaken at 60 rpm for 5 hours at 37° C.
After a 5-hour incubation, dialyzed samples were prepared from 25-μL aliquots from both the donor and receiver sides of the dialysis apparatus into new sample preparation plates. The aliquots were mixed with same volume of opposite matrixes. The samples were quenched with 200 μL acetonitrile containing internal standard. All 0-hour and 5-hour samples were vortexed at 600 rpm for 10 min followed by centrifugation at 5594×g for 15 minutes (Thermo Multifuge×3R). Fifty μL of the supernatants were transferred to anew 96-well plate and mixed with 50 μL Milli-Q water. The sample plate was covered and frozen at −20° C. until LC/MS/MS analysis.
In general terms: In equilibrium dialysis free small molecules cross a membrane that holds back macromolecules.

≈ marks a conversion by molar mass, not a printed value.

A word on the CLint scaled: it is the rate of metabolic loss divided by the concentration. Read a low CLint scaled as greater metabolic stability. Usually IC50 stands for the midpoint of a concentration-inhibition curve. A word on the solubility: it is the dissolved amount per volume that the medium holds. On to `CC(C)=Cc1ccc(Oc2[nH]nnc2C(=O)O)cc1` [Example I-287, 5-(4-(2-Methylprop-1-en-1-yl)phenoxy)-1H-1,2,3-triazole-4-carboxylic acid], for which, in data set [1], the intrinsic metabolic clearance (CLint scaled) at 1 μM was found to be 13.4 mL/min/kg and the half-life at 1 μM was 2.16 h. The half-maximal inhibitory concentration (IC50) in data set [2] is 20 nM. Moreover, the solubility at 1 h in data set [3] was 82.5 µM (≈ 21.4 µg/mL). In addition, the half-life at 2 μM in data set [4] worked out at 1.72 h. The compound also displayed a solubility at 1 h in data set [5] of 85.7 µM (≈ 22.2 µg/mL). Also, in data set [6], the recovery at 5 h, 1 μM turned out to be 109% and the fraction unbound at 5 h, 1 μM is 0.002.
Regarding `CCCC(C)c1ccc(Oc2[nH]nnc2C(=O)O)cc1` (stereo not drawn) [Example I-273, 5-(4-(Pentan-2-yl)phenoxy)-1H-1,2,3-triazole-4-carboxylic acid], in data set [1], the CLint scaled at 1 μM was 35.2 mL/min/kg and the half-life at 1 μM came to 0.822 h. Besides, the IC50 in data set [2] turned out to be 45 nM. In data set [3], the solubility at 1 h came out at 108 µM (≈ 29.7 µg/mL). The half-life at 2 μM in data set [4] is 2.2 h. This compound also gave a solubility at 1 h in data set [5] of 112 µM (≈ 30.8 µg/mL). Besides, in data set [6], the recovery at 5 h, 1 μM worked out at 99.9% and the fraction unbound at 5 h, 1 μM was 0.003.
For the compound `O=C(O)c1[nH]nnc1Oc1ccc(C2CCCCC2)cc1` [Example I-266, 5-(4-Cyclohexylphenoxy)-1H-1,2,3-triazole-4-carboxylic acid], in data set [1], the CLint scaled at 1 μM was 26.4 mL/min/kg and the half-life at 1 μM came out at 1.1 h. Besides, the IC50 in data set [2] stood at 30 nM. Further, the solubility at 1 h in data set [3] was 108 µM (≈ 31 µg/mL). In data set [4], the half-life at 2 μM came to 3.11 h. Moreover, in data set [5], the solubility at 1 h is 96.5 µM (≈ 27.7 µg/mL). This compound also gave a recovery at 5 h, 1 μM in data set [6] of 101%.
In the case of `O=C(O)c1nn[nH]c1Oc1ccc(S(F)(F)(F)(F)F)cc1` [Example I-049, 5-(4-Pentafluorosulfanylphenoxy)-1H-1,2,3-triazole-4-carboxylic acid], the IC50 in data set [2] worked out at 50 nM. The half-life at 2 μM in data set [4] is 3.65 h. Also, in data set [6], the recovery at 5 h, 1 μM was 107% and the fraction unbound at 5 h, 1 μM was 0.006.
For the compound `CCC(CC)c1cccc(Oc2[nH]nnc2C(=O)O)c1` [Example I-276, 5-(3-(Pentan-3-yl)phenoxy)-1H-1,2,3-triazole-4-carboxylic acid], in data set [1], the CLint scaled at 1 μM came to 5.95 mL/min/kg and the half-life at 1 μM stood at 4.87 h. Also, the IC50 in data set [2] turned out to be 23 nM. In data set [3], the solubility at 1 h is 103 µM (≈ 28.4 µg/mL). The half-life at 2 μM in data set [4] turned out to be 3.2 h. This compound yielded a solubility at 1 h in data set [5] of 109 µM (≈ 30 µg/mL). Besides, in data set [6], the recovery at 5 h, 1 μM is 108% and the fraction unbound at 5 h, 1 μM was 0.006.
Take `O=C(O)c1nn[nH]c1Sc1ccc2ccccc2c1` [Example I-031, 5-(Naphthalen-2-ylthio)-1H-1,2,3-triazole-4-carboxylic acid]: in data set [1], the CLint scaled at 1 μM worked out at 2.21 mL/min/kg. Also, in data set [1], the half-life at 1 μM turned out to be 13.1 h. In data set [2], the IC50 worked out at 69 nM. In addition, the solubility at 1 h in data set [3] turned out to be 110 µM (≈ 29.8 µg/mL); in data set [5], 121 µM (≈ 32.8 µg/mL). The half-life at 2 μM in data set [4] worked out at 1.25 h. For the same compound, the recovery at 5 h, 1 μM in data set [6] stood at 117%.
For the compound `COc1ccc(-c2ccc(Oc3[nH]nnc3C(=O)O)cc2)cc1OC` [Example I-270, 5-((3′,4′-Dimethoxy-[1,1′-biphenyl]-4-yl)oxy)-1H-1,2,3-triazole-4-carboxylic acid], in data set [1], the intrinsic metabolic clearance (CLint scaled) at 1 μM stood at 2.72 mL/min/kg and the half-life at 1 μM was determined as 10.6 h. In addition, the IC50 in data set [2] came to 13 nM. For the same compound, the solubility at 1 h in data set [3] is 109 µM (≈ 37.2 µg/mL). The half-life at 2 μM in data set [4] came to 5.2 h. The solubility at 1 h in data set [5] was below 0.2 µM. In addition, in data set [6], the recovery at 5 h, 1 μM is 101% and the fraction unbound at 5 h, 1 μM was 0.008.
Consider `Cc1ccc(-c2ccc(Oc3[nH]nnc3C(=O)O)cc2)cc1` [Example I-151, 5-((4′-Methyl-[1,1′-biphenyl]-4-yl)oxy)-1H-1,2,3-triazole-4-carboxylic acid], for which, in data set [1], the intrinsic clearance (CLint scaled) at 1 μM is below 0.15 mL/min/kg and the half-life at 1 μM was above 83.3 h. For the same compound, the IC50 in data set [2] came out at 11 nM. Also, in data set [3], the solubility at 1 h turned out to be 53 µM (≈ 15.6 µg/mL). For the same compound, the half-life at 2 μM in data set [4] was determined as 0.669 h. Also, the solubility at 1 h in data set [5] was 83.2 µM (≈ 24.6 µg/mL).
Consider `COc1ccc(-c2ccc(Oc3[nH]nnc3C(=O)O)cc2)cc1` [Example I-153, 5-((4′-Methoxy-[1,1′-biphenyl]-4-yl)oxy)-1H-1,2,3-triazole-4-carboxylic acid], for which, in data set [2], the IC50 amounted to 10 nM. Also, the half-life at 2 μM in data set [4] was 3.11 h. Moreover, in data set [6], the recovery at 5 h, 1 μM is 116% and the fraction unbound at 5 h, 1 μM was 0.103.

For the origin of these results see patent publication US11389456B2, “Compounds and methods for treating oxalate-related diseases” (OxaluRx, Inc., priority 2018, dated 2022).
